From ChEMBL document CHEMBL4680273, “Teixobactin: A Paving Stone toward a New Class of Antibiotics?” (2020)
Converted amounts (≈) assume the structure as drawn.

How the values were obtained:
Assay type in all cases: functional
Staphylococcus aureus [1] = assay: Antibacterial activity against methicillin resistant Staphylococcus aureus ATCC 33591 incubated for 24 hrs
Staphylococcus aureus [2] = assay: Antibacterial activity against Staphylococcus aureus ATCC 29213 by CLSI-based broth microdilution method
Bacillus subtilis [3] = assay: Antibacterial activity against Bacillus subtilis ATCC 6051 incubated for 24 hrs by CLSI based broth microdilution method
Staphylococcus aureus [4] = assay: Antibacterial activity against Staphylococcus aureus ATCC 29213 incubated for 24 hrs by CLSI-based broth microdilution method
Staphylococcus aureus [5] = assay: Antibacterial activity against Staphylococcus aureus TH4112 incubated for 16 to 20 hrs by CLSI-based broth microdilution method; details: time 16-20 hrs
Staphylococcus aureus [6] = assay: Antibacterial activity against Staphylococcus aureus ATCC 29213
Staphylococcus aureus [7] = assay: Antibacterial activity against methicillin- resistant Staphylococcus aureus SA86
[8] = system: Staphylococcus epidermidis; assay: Antibacterial activity against Staphylococcus epidermidis ATCC 14990 incubated for 16 hrs by UV/Visible absorbance method
Bacillus subtilis [9] = assay: Antibacterial activity against Bacillus subtilis ATCC 6051 incubated for 16 hrs by UV/Visible absorbance method
Staphylococcus aureus [10] = assay: Antibacterial activity against methicillin resistant Staphylococcus aureus USA300
Staphylococcus aureus [11] = assay: Antibacterial activity against Staphylococcus aureus ATCC 29213 incubated for 16 hrs by UV/Visible absorbance method
Staphylococcus aureus [12] = assay: Antibacterial activity against Staphylococcus aureus SH1000 incubated for 24 hrs by CLSI-broth microdilution method; details: Staphylococcus aureus, SH1000, read-out: MIC
Pseudomonas aeruginosa = assay: Antibacterial activity against Pseudomonas aeruginosa PAO1 incubated for 24 hrs in presence of colistin by Checkerboard assay
Staphylococcus aureus [13] = assay: Antibacterial activity against methicillin resistant Staphylococcus aureus

CC[C@H](C)[C@H](NC(=O)[C@@H](Cc1ccccc1)NC)C(=O)N[C@@H](CO)C(=O)N[C@H](CCC(N)=O)C(=O)N[C@@H](C(=O)N[C@H](C(=O)N[C@@H](C)C(=O)N[C@H]1C(=O)N[C@@H](C)C(=O)N[C@@H](CCCNC(=N)N)C(=O)N[C@@H]([C@@H](C)CC)C(=O)O[C@H]1C)[C@@H](C)CC)[C@@H](C)CC
MIC (Staphylococcus aureus [1]): 32 µg/mL (≈ 26 µM) | MIC (Staphylococcus aureus [2]): 32 µg/mL (≈ 26 µM)

CC[C@H](C)[C@H](NC(=O)[C@@H](Cc1ccccc1)NC)C(=O)N[C@@H](CCCCN)C(=O)N[C@H](CCC(N)=O)C(=O)N[C@@H](C(=O)N[C@H](C(=O)N[C@@H](CO)C(=O)N[C@H]1C(=O)N[C@@H](C)C(=O)N[C@@H](CCCNC(=N)N)C(=O)N[C@@H]([C@@H](C)CC)C(=O)O[C@H]1C)[C@@H](C)CC)[C@@H](C)CC
MIC (Bacillus subtilis [3]): 0.25 µg/mL (≈ 0.194 µM) | MIC (Staphylococcus aureus [4]): 4 µg/mL (≈ 3.11 µM)

CC[C@H](C)[C@@H]1NC(=O)[C@H](C[C@H]2CNC(=N)N2)NC(=O)[C@H](C)NC(=O)[C@H](NC(=O)[C@H](CO)NC(=O)[C@@H](NC(=O)[C@H](NC(=O)[C@@H](CCC(N)=O)NC(=O)[C@H](CO)NC(=O)[C@@H](NC(=O)[C@@H](Cc2ccccc2)NC)[C@@H](C)CC)[C@@H](C)CC)[C@@H](C)CC)CNC1=O
MIC (Staphylococcus aureus [5]): 0.185 µg/mL (≈ 0.151 µM)

CC[C@H](C)[C@H](NC(=O)[C@@H](Cc1ccccc1)NC)C(=O)N[C@@H](CO)C(=O)N[C@H](CCC(N)=O)C(=O)N[C@@H](C(=O)N[C@H](C(=O)N[C@@H](CO)C(=O)N[C@H]1C(=O)N[C@@H](C)C(=O)NC(CCCN)C(=O)N[C@@H]([C@@H](C)CC)C(=O)O[C@H]1C)[C@@H](C)CC)C(C)C (stereo partly drawn)
MIC (Staphylococcus aureus [6]): 8 µg/mL (≈ 6.73 µM) | MIC (Staphylococcus aureus [7]): 16 µg/mL (≈ 13.5 µM)

CC[C@H](C)[C@H](NC(=O)[C@@H](Cc1ccccc1)NC)C(=O)N[C@@H](CO)C(=O)N[C@H](CCC(N)=O)C(=O)N[C@@H](C(=O)N[C@H](C(=O)N[C@@H](CO)C(=O)N[C@H]1C(=O)N[C@@H](C)C(=O)NC(CCCN)C(=O)N[C@@H](C(C)C)C(=O)O[C@H]1C)[C@@H](C)CC)[C@@H](C)CC (stereo partly drawn)
MIC (Staphylococcus aureus [6]): 8 µg/mL (≈ 6.73 µM) | MIC (Staphylococcus aureus [7]): 8 µg/mL (≈ 6.73 µM)

CC[C@@H](C)[C@H](NC(=O)[C@H](CCC(N)=O)NC(=O)[C@@H](CO)NC(=O)[C@H](NC(=O)[C@H](Cc1ccccc1)NC)[C@H](C)CC)C(=O)N[C@@H](C(=O)N[C@H](CO)C(=O)N[C@@H]1C(=O)N[C@H](C)C(=O)N[C@H](CCCNC(=N)N)C(=O)N[C@H]([C@H](C)CC)C(=O)O[C@@H]1C)[C@H](C)CC
MIC [8]: 2 µg/mL (≈ 1.61 µM) | MIC (Bacillus subtilis [9]): 2 µg/mL (≈ 1.61 µM)

CC[C@H](C)[C@H](NC(=O)[C@@H](Cc1ccccc1)NC)C(=O)N[C@@H](CO)C(=O)N[C@H](CCC(N)=O)C(=O)N[C@@H](C(=O)N[C@H](C(=O)N[C@@H](CO)C(=O)N[C@H]1C(=O)N[C@@H](C)C(=O)N[C@@H](CCCNC(N)=O)C(=O)N[C@@H]([C@@H](C)CC)C(=O)O[C@H]1C)[C@@H](C)CC)[C@@H](C)CC
MIC (Staphylococcus aureus [10]): 16 µg/mL (≈ 12.8 µM)

CC[C@H](C)[C@H](NC(=O)[C@H](NC(=O)[C@@H](CCC(N)=O)NC(=O)[C@H](CO)NC(=O)[C@@H](NC(=O)[C@@H](Cc1ccccc1)NC)C(C)C)[C@@H](C)CC)C(=O)N[C@@H](CO)C(=O)N[C@H]1C(=O)N[C@@H](C)C(=O)NC(CCCN)C(=O)N[C@@H]([C@@H](C)CC)C(=O)O[C@H]1C (stereo partly drawn)
MIC (Staphylococcus aureus [6]): 8 µg/mL (≈ 6.73 µM) | MIC (Staphylococcus aureus [7]): 8 µg/mL (≈ 6.73 µM)

CC[C@H](C)[C@H](NC(=O)[C@@H](Cc1ccccc1)NC)C(=O)N[C@@H](CO)C(=O)N(C)[C@H](CCC(N)=O)C(=O)N[C@@H](C(=O)N[C@H](C(=O)N[C@@H](CO)C(=O)N[C@H]1C(=O)N[C@@H](C)C(=O)N[C@@H](CCCCN)C(=O)N[C@@H]([C@@H](C)CC)C(=O)O[C@H]1C)[C@@H](C)CC)[C@@H](C)CC
MIC (Staphylococcus aureus [11]): 16 µg/mL (≈ 13 µM) | MIC [8]: 16 µg/mL (≈ 13 µM)

CC[C@H](C)[C@H](NC(=O)[C@H](NC(=O)[C@@H](CCC(N)=O)NC(=O)[C@H](CO)NC(=O)[C@@H](NC(=O)[C@H](Cc1ccccc1)N(C)C)[C@@H](C)CC)[C@@H](C)CC)C(=O)N[C@@H](CO)C(=O)N[C@H]1C(=O)N[C@@H](C)C(=O)N[C@@H](CCCNC(=N)N)C(=O)N[C@@H]([C@@H](C)CC)C(=O)O[C@H]1C
MIC (Staphylococcus aureus [2]): 32 µg/mL (≈ 25.4 µM)

CCCCC1NC(=O)C(CCCC(F)(F)F)NC(=O)[C@H](C)NC(=O)[C@H](NC(=O)[C@H](CO)NC(=O)[C@@H](NC(=O)[C@H](NC(=O)[C@@H](CCC(N)=O)NC(=O)[C@H](CO)NC(=O)[C@@H](NC(=O)[C@@H](Cc2ccccc2)NC)[C@@H](C)CC)[C@@H](C)CC)[C@@H](C)CC)[C@H](C)OC1=O (stereo partly drawn)
MIC (Staphylococcus aureus [12]): 8 µg/mL (≈ 6.37 µM) | MIC (Pseudomonas aeruginosa): 32 µg/mL

CC[C@H](C)[C@H](NC(=O)[C@@H](Cc1ccccc1)NC)C(=O)N[C@@H](CO)C(=O)N[C@H](CCC(N)=O)C(=O)N[C@@H](C(=O)N[C@H](C(=O)N[C@@H](CCCCO)C(=O)N[C@H]1C(=O)N[C@@H](C)C(=O)N[C@@H](CCCNC(=N)N)C(=O)N[C@@H]([C@@H](C)CC)C(=O)O[C@H]1C)[C@@H](C)CC)[C@@H](C)CC
MIC (Bacillus subtilis [3]): 8 µg/mL (≈ 6.22 µM) | MIC (Staphylococcus aureus [4]): 32 µg/mL (≈ 24.9 µM)

CC[C@H](C)[C@H](NC(=O)[C@@H](Cc1ccccc1)NC)C(=O)N[C@@H](CO)C(=O)N[C@H](CCC(N)=O)C(=O)N[C@@H](C(=O)N[C@H](C(=O)N[C@@H](CO)C(=O)N[C@H]1C(=O)N[C@@H](C)C(=O)N[C@@H](CCC/N=C(\N)N(C)C)C(=O)N[C@@H]([C@@H](C)CC)C(=O)O[C@H]1C)[C@@H](C)CC)[C@@H](C)CC
MIC (Staphylococcus aureus [10]): 4 µg/mL (≈ 3.14 µM)

CC[C@H](C)[C@H](NC(=O)[C@H](NC(=O)[C@@H](CCC(N)=O)NC(=O)[C@H](CO)NC(=O)[C@H](CC(C)C)NC(=O)[C@@H](Cc1ccccc1)NC)[C@@H](C)CC)C(=O)N[C@@H](CO)C(=O)N[C@H]1C(=O)N[C@@H](C)C(=O)NC(CCCN)C(=O)N[C@@H]([C@@H](C)CC)C(=O)O[C@H]1C (stereo partly drawn)
MIC (Staphylococcus aureus [6]): 4 µg/mL (≈ 3.33 µM) | MIC (Staphylococcus aureus [7]): 4 µg/mL (≈ 3.33 µM)

CC[C@H](C)[C@H](NC(=O)[C@@H](Cc1ccccc1)NC)C(=O)N[C@@H](CO)C(=O)N[C@H](CC(N)=O)C(=O)N[C@@H](C(=O)N[C@H](C(=O)N[C@@H](C)C(=O)N[C@H]1C(=O)N[C@@H](C)C(=O)N[C@@H](CCCNC(=N)N)C(=O)N[C@@H]([C@@H](C)CC)C(=O)O[C@H]1C)[C@@H](C)CC)[C@@H](C)CC
MIC (Staphylococcus aureus [13]): 0.5 µg/mL (≈ 0.412 µM) | MIC (Staphylococcus aureus [2]): 2 µg/mL (≈ 1.65 µM)

CC[C@H](C)[C@H](NC(=O)[C@@H](Cc1ccccc1)NC)C(=O)N[C@@H](CO)C(=O)N[C@H](CCCNC(=N)N)C(=O)N[C@@H](C(=O)N[C@H](C(=O)N[C@@H](C)C(=O)N[C@H]1C(=O)N[C@@H](C)C(=O)N[C@@H](CCCNC(=N)N)C(=O)N[C@@H]([C@@H](C)CC)C(=O)O[C@H]1C)[C@@H](C)CC)[C@@H](C)CC
MIC (Staphylococcus aureus [13]): 1 µg/mL (≈ 0.796 µM) | MIC (Staphylococcus aureus [2]): 2 µg/mL (≈ 1.59 µM)

CC[C@H](C)[C@H](NC(=O)[C@@H](Cc1ccccc1)NC)C(=O)N[C@@H](CO)C(=O)N[C@H](CCCCN)C(=O)N[C@@H](C(=O)N[C@H](C(=O)N[C@@H](C)C(=O)N[C@H]1C(=O)N[C@@H](C)C(=O)N[C@@H](CCCNC(=N)N)C(=O)N[C@@H]([C@@H](C)CC)C(=O)O[C@H]1C)[C@@H](C)CC)[C@@H](C)CC
MIC (Bacillus subtilis [3]): 1 µg/mL (≈ 0.814 µM) | MIC (Staphylococcus aureus [4]): 4 µg/mL (≈ 3.26 µM)

CCCCC1NC(=O)[C@H](CCCNC(=N)N)NC(=O)[C@H](C)NC(=O)[C@H](NC(=O)[C@H](CO)NC(=O)[C@@H](NC(=O)[C@H](NC(=O)[C@@H](CCC(N)=O)NC(=O)[C@H](CO)NC(=O)[C@@H](NC(=O)[C@@H](Cc2ccccc2)NC)[C@@H](C)CC)[C@@H](C)CC)[C@@H](C)CC)[C@H](C)OC1=O (stereo partly drawn)
MIC (Staphylococcus aureus [12]): 8 µg/mL (≈ 6.43 µM) | MIC (Pseudomonas aeruginosa): 64 µg/mL

CC[C@H](C)[C@@H]1NC(=O)[C@H](CCCNC(=N)N)NC(=O)[C@H](C)NC(=O)[C@H](NC(=O)[C@H](CO)NC(=O)[C@@H](NC(=O)[C@H](NC(=O)[C@@H](CCC(N)=O)NC(=O)[C@H](CO)NC(=O)[C@@H](NC(=O)[C@@H](Cc2ccccc2)NC)[C@@H](C)CC)[C@@H](C)CC)[C@@H](C)CC)CNC1=O
MIC [8]: 1 µg/mL (≈ 0.813 µM)
